# Test results reported in patent publication US8927598B2, “Treating oncogenic Ras driven cancers” (Duke University, priority 2008, dated 2015).
# What was measured:
# [1] = tested on: human pancreatic cell line MiaPaCa-2; experiment: Tumor growth of MiaPaCa-2 cells injected into SCID-beige mice given L-NAME in drinking water; format: in vivo; conditions: L-NAME 0.5 g/liter in drinking water, vs untreated drinking water
# From the text: Eight SCID-beige immunocompromised mice. (The Jackson Laboratory, Bar Harbor, Me.). were each injected simultaneously with one million cells of the human pancreatic cell line MiaPaCa-2 (available from the ATCC, identified as ATCC CRL-1420). Then 4 mice were provided with drinking water supplemented with L-NAME at a concentration of 0.5 g/liter and 4 were provided with drinking water that was not supplemented. Measurements were taken at the site of the injection to calculate tumor volume. Results are shown in FIG. 1 which is a graph of Tumor Volume vs. Time in days after injection where the diamonds denote measurements on untreated mice and the triangles denote measurements on L-NAME fed mice.
# [2] = tested on: human eNOS; experiment: Knockdown of eNOS expression, immunoblot; format: cell-based
# From the text: The siRNA of SEQ ID NO:1 is produced as follows: Complementary oligonucletides obtained from Integrated DNA Technologies (Coralville, USA) and annealed together were cloned into the Hind III and Bgl II sites of pSUPER-RETRO (OligoEngine, Seattle, Wash.). The sense strand of this insert is identified in the Sequence Listing as SEQ ID NO: 4. Transcription of this sequence by RNA polymerase produces an shRNA having the Sequence Listing as SEQ ID NO: 5. This is processed using Dicer complex to remove the hairpin to give the double stranded RNA sequence of SEQ ID NO: 1 which specifically knocks down the expression of human eNOS Exemplary dosage is 100-1600 micrograms based on a clinical trial of the siRNA compound AGN211745.
# A test for determining that eNOS expression is reduced is by immunoblot by using commercially available phosphor-S1177 eNOS antibody.
# [3] = tested on: pancreatic cancer cell line; experiment: Tumor growth in SCID-beige mice of pancreatic cancer cell lines stably infected with siRNA plasmid; format: in vivo, human; conditions: cells expressing the siRNA
# Procedure: Methods for creating stably infected cell lines are set below:
# Day 1 • Morning—split a 10 cm plate of confluent 293T/17 cells (ATCC CRL-11268) 1:6 in αMEM supplemented with 10% Fetal Calf Serum (FCS) (no antibiotics) into a 10 cm plate so as to be 40-50% confluent at time of transfection.
# Day 2 • Morning—mix in tissue culture hood in microcentrifuge tube: 12 μg pCL-10A1, 3 μg pSUPER-RETRO-PURO plasmid (OligoEngine, Seattle, Wash.) engineered to encode eNOS, RNA, NRas siRNA or HRas siRNA, and serum free media to 200 μl total volume. Tap tube side gently to mix and incubate at room temperature 15-45 minutes. Add dropwise to 293T/17 cells with micropipette and incubate overnight at 37° C.
# Day 3 • Morning—repeat transfection protocol from day 2. Once the transfection mix is added to the cells, it must be incubated for at least 8 hours. Evening—remove media and replace with 6 ml of cell specific media of cells to be infected.
# Day 4 • Morning—split a confluent 10 cm plate of pancreatic cancer cell line to be infected in cell type specific media so that they will reach 25-35% confluency the following morning.
# Day 5 • Morning—aspirate media in a 10 ml syringe, attach 0.45 μm acrodisc filter to the bottom of the syringe. Filter the media into a 15 ml conical tube. […]
# Method of testing pancreatic cancer cell line for tumor growth is set forth below: • 1. Expand pancreatic cancer cells stably infected with pSUPER-RETRO-PURO plasmid (OligoEngine) engineered to encode eNOS siRNA, NRas siRNA, or HRas siRNA to a total count of at least 1×10^7 cells/mouse, typically 4-8 15 cm tissue culture dishes at full confluency (number of dishes determined by cell size). • 2. […] Weigh each mouse for baseline reading and track tumor progression over the weeks to months by measuring large and small diameters and extrapolating tumor volume utilizing the equation: Tumor Volume=(small diameter)^2[…](large diameter/2).
# [4] = tested on: human NRas; experiment: Knockdown of NRas expression, immunoblot; format: cell-based
# From the text: (§1) The siRNA of SEQ ID NO: 2 is produced as follows: Complementary oligonucleotides obtained from Integrated DNA Technologies (Coralville, USA) and annealed together were cloned into the Hind III and Bgl II sites of pSUPER-RETRO (OligoEngine, Seattle, Wash.). The sense strand of this insert is identified in the Sequence Listing as SEQ ID NO: 8. Transcription of this sequence by RNA polymerase produces an shRNA having the sequence identified in the Sequense Listing as SEQ ID NO: 9. This is processed using Dicer complex to remove the hairpin to give the double stranded RNA sequence of SEQ ID NO: 2 which specifically knocks down the expression of human NRas.
# A test for determining that NRas expression is reduced is by immunoblot by using commercially available NRas antibody.
# [5] = tested on: human HRas; experiment: Knockdown of HRas expression, immunoblot; format: cell-based
# From the text: as §1, with “3” for “2”, “6.” for “8.”, “7.” for “9.”, “HRas.” for “NRas.”
# A test for determining that HRas expression is reduced is by immunoblot by using commercially available HRas antibody.
compound,measurement,setting,value
"COC(=O)[C@@H](N)CCCNC(=N)N[N+](=O)[O-] [L-NAME, N^G-nitro-L-arginine methyl ester]",Tumor growth (tumor volume vs. time in days after injection),[1],Tumors grew more slowly
same,Reduction in tumor size at termination of the experiment,[1]; p<0.01,~3 fold
SEQ ID NO: 1: novel siRNA generated by the applicant that knocks down the expression of human eNOS (AAGAGUUAUAAGAUCCGCUUC; chemistry not given here; listed as Homo sapiens),Knockdown of expression of human eNOS,[2],efficiently knocks down
same,Tumor initiation and growth of cancer cell lines in mice,[3],blocks tumor initiation and growth
"SEQ ID NO: 2: novel siRNA generated by the applicant that knocks down the expression of human NRas (CAAGAAGAGUACAGUGCCAUG; listed as RNA, chemistry not given here; listed as Homo sapiens)",Knockdown of expression of NRas proteins,[4],efficiently knocks down
same,Tumor initiation and growth of cancer cell lines in mice,[3],inhibits tumor growth
"SEQ ID NO: 3: published siRNA (Yang, G., et al., Oncogene 22, 5694-5701 (2003)) that knocks down the expression of human HRas (GGCAAGAGUGCGCUGACCAUC; listed as RNA, chemistry not given here; listed as Homo sapiens)",Knockdown of expression of HRas proteins,[5],efficiently knocks down
same,Tumor initiation and growth of cancer cell lines in mice,[3],inhibits tumor growth
